In patent US20180231524A1, “IN VITRO METHODS OF IDENTIFYING MODULATORS OF NEUROMUSCULAR JUNCTION ACTIVITY” (MEMORIAL SLOAN-KETTERING CANCER CENTER, priority 2015, published 2018):

Experiments:
rodent GSK3β homologs = settings: cited from earlier work
[1] = tested on: co-cultures of MNs with adult-derived myoblasts (hMA); experiment: myasthenia gravis model: light-induced muscle contraction in co-cultures; format: cell-based, human; settings: PYR 10 μM on day 3; cultures treated with MG IgG (#1 & 2 combined) and complement; n=8
Excerpt: Next we sought to address whether the functional neuromuscular co-cultures were suitable to model a classic human neuromuscular disease. Myasthenia gravis (MG) (Toyka et al., 1977; Verschuuren et al., 2013) is caused by the emergence of autoantibodies against proteins in the neuromuscular junction (e.g. the acetylcholine receptor, AChR). Binding of the pathogenic antibody to AChR activates the complement cascade, resulting in destruction of the neuromuscular endplate (Sahashi et al., 1980), which ultimately causes progressive muscle weakness in patients. We therefore quantified light-induced muscle contractions in functional co-cultures of MNs with adult-derived myoblasts (hMA) before (FIG. 4A, D) and after the incubation with IgG fractions (200 nM total IgG) from two MG patients with clearly elevated AChR antibody titers (#1 and #2). Sandoglobulin (SG) polyvalent IgG served as control. […] Next, we assessed if the myasthenic phenotype was reversible after washout of MG IgG and complement, mimicking plasmapheresis therapy (Gold et al., 2008). […]
Maturing co-cultures were observed under 10× brightfield illumination while intermittently opening the shutter for fluorescent light (470 nm, 2mW/mm^2, approx. 300 ms pulse). […] For the quantification of movement multiple representative high contrast regions were automatically traced (MetaMorph Software). […]

[2] = tested on: myofibers in MN co-cultures with adult muscle (hMA); experiment: myasthenia gravis model: calcium imaging; format: cell-based, human; settings: MG#1 IgG and complement cultures
Experimental: To further characterize the myasthenic phenotype we performed calcium imaging experiments. […] Therefore cultures were pretreated with control and MG#1 IgG and human complement for 2 days. Calcium imaging was performed in regions with similar amounts of muscle fibers and dense innervation (FIG. 4K, L). […] In addition, the percentage of reactive fibers was reduced in cultures treated with MG#1 IgG and complement compared to controls (FIG. 4N, CTRL 78% vs. MG 32%, two-tailed unpaired t test, p<0.001, t=4.79). […] Finally we sought to confirm the complement attack on the neuromuscular junction. For this purpose, cultures treated with MG#1 IgG and human complement as well as cultures treated with CTRL IgG and human complement for 24 h were stained with an antibody recognizing the human complement fragment C3c. […] (FIG. 4O, P).
(§1) Myotubes or co-cultures on glass coverslips were incubated with the ratiometric calcium dye Fura-2 and imaged under continuous perfusion in normal Tyrode's solution. Myotubes were stimulated by acetylcholine. Co-cultures were illuminated for optogenetic stimulation for 10 ms at 470 nm (4 mW/mm2) every 5 s.
Serum (containing complement) from 5 healthy donors was pooled and added to the media where indicated (2% v/v). […]

[3] = tested on: co-cultures of ChR2-expressing hESC-derived spinal motorneurons with human adult (hMA) and fetal (hMF) myofibers; experiment: light-induced muscle twitches in neuromuscular co-cultures; format: cell-based; settings: 2 μM, optogenetic stimulation 470 nm, all tested cultures
Experimental: To establish the neuromuscular co-culture, we used the purified ChR2-expressing spinal motorneurons (day 20-25) and plated them onto pre-differentiated skeletal myofibers (day 5-10). After plating, hESC-derived spinal MN cell bodies mostly remained within the neuronal clusters but extended axons across the adult and fetal muscle (up to 2 mm within the first week, FIG. 3A, E). Co-cultures were tested for the establishment of neuromuscular connectivity in weekly intervals. For this purpose the cultures were observed under bright field illumination and intermittently stimulated with blue light pulses. Six to eight weeks after initiation of the co-culture, the elongated cylindrical myoblast-derived muscle fibers remained morphologically intact and started to contract in response optogenetic stimulation (470 nm, 0.2 Hz, 300 ms pulse width). FIGS. 3B, F show mature co-cultures with both muscle types. FIG. 3C, G show the quantification of muscle twitches of individual fibers from such cultures. The lower panels show long term experiments over 8.5 min (FIG. 3C at 0.2 Hz, FIG. 3G at 0.1 Hz). […]
Maturing co-cultures were observed under 10× brightfield illumination while intermittently opening the shutter for fluorescent light (470 nm, 2mW/mm^2, approx. 300 ms pulse). […] For the quantification of movement multiple representative high contrast regions were automatically traced (MetaMorph Software).

[4] = tested on: myofibers in functional neuromuscular co-cultures; experiment: calcium imaging in neuromuscular co-cultures under optogenetic stimulation; format: cell-based, human; settings: 470 nm optogenetic stimulation, Fura2; 6/6 cultures
Experimental: (§2) We next characterized key physiologic parameters in the functional neuromuscular cultures. Matured co-cultures were incubated with the calcium dye Fura2 and mounted into an imaging chamber for continuous perfusion. […] The lower panel of FIG. 3J confirms long-term stability of neuro-muscular excitability in a calcium imaging experiment over 45 minutes. In a separate study, skeletal myotubes (n=5), identified by their cylindrical and striated appearance under phase contrast microscopy and by their ability to undergo light-induced twitching were selected for intracellular recordings (FIG. 3K). Light-responsive myotubes were impaled with sharp electrodes and muscle APs were recorded during 447 nm optogenetic stimulation at frequencies from 0.2 to 2 Hz. Spike fidelity was 100% at 0.2 Hz, 93.3±6.7% at 0.5 Hz, 75±15.0% at 1 Hz and 80±10.0% at 2 Hz. […] To address the stability of neuromuscular connectivity over the course of several days and weeks, contractile regions (n=7) were assessed every 5 days.
as §1

[5] = tested on: light-responsive skeletal myotubes in neuromuscular co-cultures; experiment: sharp electrode recording of light-induced myofiber action potentials; format: cell-based, human; settings: 2 μM; 447 nm optogenetic stimulation 0.2 to 2 Hz
Experimental: as §2
On matured EYFP+ MNs whole-cell current clamp recordings were performed at room temperature. Light-evoked APs were elicited using a 447 nm diode laser (OEM Laser) with light pulses of 5 ms at approximately 1 mW/mm2. Myotubes contracting in response to light stimulation were impaled with a sharp electrode for intracellular recordings.

For Cc1c[nH]c(-c2cnc(NCCNc3ccc(C#N)cn3)nc2-c2ccc(Cl)cc2Cl)n1 [CHIR99021, 6-(2-(4-(2,4-dichlorophenyl)-5-(4-methyl-1H-imidazol-2-yl)pyrimidin-2-ylamino)ethylamino)nicotinonitrile], the “IC50 values against rodent GSK3β homologs” value (rodent GSK3β homologs) is listed as “nanomolar”.
In the case of CN(C)C(=O)Oc1ccc[n+](C)c1 [pyridostigmine], the “change of movement after pyridostigmine in MG cultures” value [1] is reported as “+22%”, the “percentage of reactive fibers after PYR in MG cultures” value [2] is reported as “tendency towards a higher percentage of reactive fibers, which did not reach significance” and the “light-induced calcium spike after PYR in MG cultures” value ([2]; n=8) is reported as “small but significant increase”.
In the case of CC(=O)O[C@H]1C[C@@H]2CC[C@@H]3[C@H](CC[C@@]4(C)[C@H]3C[C@H]([N+]3(C)CCCCC3)[C@@H]4OC(C)=O)[C@@]2(C)C[C@@H]1N1CCCCC1 [vecuronium], the “light induced muscle twitches” value [3] is reported as “completely blocked”, the “light induced muscle twitches” value ([3]; listed as Vecuronium) is reported as “blocks light-evoked contractility” and the “light-evoked calcium spikes in myofibers” value [4] is reported as “could be blocked”. The “light-induced APs in myofibers” value [5] was “completely blocked light-induced APs in myofibers in a reversible manner”.
